{
  "source": "patent US20240166702A1",
  "about": "“COMPOSITIONS AND METHODS FOR TREATING BREAST CANCER” (Arizona Board of Regents on Behalf of The University of …, priority 2021, published 2024)",
  "key": {"MDA-MB-468 cells": {"system": "MDA-MB-468 cells", "format": "cell-based, human", "protocol": "A. Peptide sequence alignment of modified and stabilized peptides (−) indicates conserved residues, (/) indicates a deleted residue. Modified residues used for staples are (S)-2-(((9H-flouren-9-yl) methoxy) caronylamino)-2-methyl-hept-6-enoic acid (5) and (R)-2-(((9H-flouren-9-yl) methoxy) caronylamino)-2-methyl-dec-9-enoic acid (8). PTD4=Protein Transduction Domain. Ac=acetylation of 5′ end and NH2=amidation of 3′ end. B. MDA-MB-468 cells were treated with 10 μM of the indicated peptide for 3 days. Cell viability was measured using an MTT assay. Vehicle control represents 100%. C. A predicted peptide structure of SNX1.3 was generated using SWISSMODEL with negative (blue) and positive (red) residues highlighted.\nB. MDA-MD-468 cells were transduced with an IPTG inducible shEGFR targeted against the 3′ UTR of EGFR. These cells were incubated with IPTG for the indicated number of days and lysates were generated to confirm knock down of EGFR. C. In tandem with B., cells were plated and incubated +/−IPTG for 2 days prior to drug treatment. […] After 5 days of IPTG and 3 days of peptide treatment viability was measured using an MTT assay.\nPredicted peptide structure including negatively (blue) and positively (red) charged residues was used to guide the modifications (FIG. 2C)."}, "[1]": {"system": "H1975 cell line with an EGFR driver mutation in the kinase domain (T790M)", "assay": "MTT cell viability assay in H1975 cells", "format": "cell-based", "conditions": "3 days"}, "[2]": {"assay": "Toxicity evaluation in C57Bl/6J female mice", "format": "in vivo, mouse", "conditions": "5.0 or 10.0 μg/g body weight, 3×/week IV, 2 weeks; cSNX1.3 versus cPTD4; data not shown", "protocol": "Mice are continually bred to activate the pregnancy-dependent WAP promoter, which drives expression of the EGFR ligand Transforming Growth Factor alpha (TGFα) strictly to the mouse mammary glands. This model stochastically forms unifocal mammary adenocarcinomas through a process that begins with mammary hyperplasia, followed by tumor formation over approximately 8 months. […] No difference in weight or behavior or grooming was observed. Therefore 10 μg/g body weight was used for subsequent studies."}, "WAP-TGFα tumors [3]": {"system": "WAP-TGFα tumors", "assay": "Histology and protein lysate analysis of treated WAP-TGFα tumors", "format": "in vivo, mouse", "description": "Mice were bred continuously to induce transgene expression and palpated weekly for tumor formation. […] A. Changes in tumor size from entry into study until end of study are shown for each individual tumor, (*) indicate tumors that entered the study at size greater than 500 mm^3, all other tumors entered the study at ˜100 mm^3. B. a Kaplan-Meier survival curve was generated showing when mice were sacrificed by either reaching tumor burden (2000 mm^3) or the end of the study (p=0.0002). C. Upon sacrifice tumors were harvested and fixed in 10% formalin and embedded in paraffin. Slides were stained with hematoxylin and eosin and imaged at 20×. D. Protein lysates were generated from tumors upon sacrifice and probed for the indicated proteins.\n(§1) A. Tumors (n=6 each treatment) from WAP-TGF mice as described in FIG. 1 were embedded and analyzed by NanoString. […] C. Tumors were dissected, lysed, and analyzed for apoptosis by probing for cleaved PARP and PDL1 expression.\nAt the end of the study, mice were sacrificed and tissues were collected and fixed in 10% buffered formalin or homogenized in tissue lysis buffer. Tissues were sectioned and evaluated for changes to tissue morphology in response to peptide treatment (FIG. 3C). […] Representative tumors from the PARP-cleavage positive (cSNX1.3-treated) and negative (cPTD4-treated) are shown (FIG. 3C).\n(§2) Due to the increased leukocyte infiltration identified by histology of cSNX1.3-treated WAP-TGFα mice, NanoString analysis was performed using a panel that identifies alterations in immune regulators through localized analysis of transcript expression (PanCancer IO 360 Panel). […] These include several immune/inflammatory genes (such as CD2, TLR, CD28, H2-M3, Ly6C1, cytokines, and chemokines) as well as genes that could impact the metastatic potential of the microenvironment (including collagen 11A1 and MM P12). NanoString bioinformatics analysis further identified that these changes could be due to an increase in Cytotoxic T lymphocytes (CTLs) in cSNX1.3-treated samples compared to PTD4 (FIG. 8B). […] Therefore, tumor lysates were prepared and evaluated for apoptosis and a loss of the negative immune checkpoint receptor PDL1 (FIG. 8C). […] These changes could indicate an alteration from an immune-suppressive to an immune-surveilling microenvironment."}, "WAP-TGFα tumors [4]": {"system": "WAP-TGFα tumors", "assay": "NanoString analysis of WAP-TGFα tumors (PanCancer IO 360 Panel)", "format": "in vivo, mouse", "protocol": "as §1\nC. WAP-TGFα tumors treated with either SNX1.3 or cPTD4 were analyzed for NK cells using an anti-NKp46 antibody. Inset is 20×.\nas §2"}, "IL1RL1": {"system": "IL1RL1", "assay": "RT-PCR analysis of IL1RL1 in MDA-MB-468 cells", "format": "cell-based, human", "conditions": "similarly treated MDA-MB-468 cells", "description": "A-C. […] A. A gene ontology enrichment bubble plot was produced, and the top 30 enriched GO terms are shown. Color indicates −1*log 10(FDR) for significance of overlap (the higher the more significant). X axis=log odds ratio for genes annotated to that GO term. […] C. RT-PCR analysis of IL1RL1.\nA significant impact on the immune response, especially IL-1 dependent pathways was identified (FIG. 12A). IL-1-specific genes were searched and an upregulation in several IL1R genes, including IL1R2, IL1RL1, IL1RL2, IL1RAP and IL1RN (FIG. 12B) were found. […] It is hypothesized that the transient and targeted activation of the IL1/TLR pathway in the tumors may allow for the immune system to become active where previously these tumors were immune suppressive. Triple negative breast cancers with active EGFR pathways are clinically immune suppressive, and it is hypothesized that blocking nEGFR may allow for the utilization of immune targeting to treat these cancers."}, "[5]": {"molecular_target": "EGFR kinase domain / SNX1 Bar domain (Homo sapiens, UniProt P00533)", "sequence (P00533 712-979 limits assumed)": "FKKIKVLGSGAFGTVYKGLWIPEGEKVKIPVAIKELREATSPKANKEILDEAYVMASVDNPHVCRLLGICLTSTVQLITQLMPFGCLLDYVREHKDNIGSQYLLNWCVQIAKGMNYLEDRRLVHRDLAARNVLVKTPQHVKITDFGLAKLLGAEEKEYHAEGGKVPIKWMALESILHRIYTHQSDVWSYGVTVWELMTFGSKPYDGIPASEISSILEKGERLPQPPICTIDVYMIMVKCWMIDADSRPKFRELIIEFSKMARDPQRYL", "assay": "MST binding of EGFR kinase domain with SNX1 Bar domain and peptides", "conditions": "EGFR kinase domain 50 nM"}},
  "data": [
    {"compound": "CC[C@H](C)[C@H](NC(=O)[C@@H](NC(=O)[C@H](Cc1c[nH]cn1)NC(=O)[C@H](CC(N)=O)NC(=O)[C@H](CCCCN)NC(=O)[C@H](C)NC(=O)[C@H](CCCNC(=N)N)NC(=O)[C@H](C)NC(=O)[C@H](CCC(N)=O)NC(=O)[C@H](CCCNC(=N)N)NC(=O)[C@H](C)NC(=O)[C@H](C)NC(=O)[C@H](C)NC(=O)[C@H](CCCNC(=N)N)NC(=O)[C@H](C)NC(=O)[C@H](Cc1ccc(O)cc1)NC(C)=O)C(C)C)C(=O)N[C@@H](CCCCN)C(=O)N[C@@H](Cc1ccc(O)cc1)C(=O)N[C@@H](CC(C)C)C(=O)N[C@@H](CCC(=O)O)C(=O)N[C@H](C(=O)N[C@@H](CC(C)C)C(=O)N[C@@H](CC(C)C)C(=O)N[C@@H](Cc1ccc(O)cc1)C(=O)N[C@@H](CO)C(=O)N[C@@H](CCC(N)=O)C(=O)N[C@@H](CCC(N)=O)C(=O)N[C@@H](CCC(N)=O)C(=O)N[C@@H](CC(C)C)C(=O)N[C@@H](C)C(=O)N[C@@H](CCCCN)C(=O)N[C@@H](Cc1ccc(O)cc1)C(=O)N[C@@H](Cc1c[nH]c2ccccc12)C(=O)N[C@@H](CCC(=O)O)C(=O)N[C@@H](C)C(=O)N[C@@H](Cc1ccccc1)C(=O)N[C@@H](CC(C)C)C(N)=O)[C@@H](C)O", "note": "[cSNX1.3]", "values": [
      {"measurement": "IC50", "setting": "MDA-MB-468 cells; 9 h", "result": 7.5, "unit": "µM"},
      {"measurement": "efficacy after C- and N-terminal peptide end-capping", "setting": "MDA-MB-468 cells; MDA-MB-468, 10 μM peptide for 3 days, MTT assay", "result": "increased efficacy"},
      {"measurement": "inhibition of cell survival, compared with Sapitinib", "setting": "MDA-MB-468 cells; MDA-MB-468, 3 days, MTT assay", "result": "more effective than Sapitinib"},
      {"measurement": "effect on cell viability", "setting": "[1]", "result": "no effect"},
      {"measurement": "difference in weight or behavior or grooming", "setting": "[2]", "result": "No difference"},
      {"measurement": "changes to tissue architecture in the normal mammary gland", "setting": "WAP-TGFα tumors [3]; fixed tissue sections at end of study", "result": "No changes"},
      {"measurement": "leukocyte infiltration of tumors", "setting": "WAP-TGFα tumors [3]; identified by histology", "result": "increased"},
      {"measurement": "overall PDL1 expression in tumors", "setting": "WAP-TGFα tumors [3]; tumor lysates", "result": "decrease"},
      {"measurement": "cleaved PARP / apoptosis in treated tumors", "setting": "WAP-TGFα tumors [3]; tumor protein lysates at sacrifice", "result": "significant increase"},
      {"measurement": "expression of TLR1, TLR7, TLR8, TLR9, IRF5 and IRF8", "setting": "WAP-TGFα tumors [4]; NanoString", "result": "increased expression"},
      {"measurement": "Cytotoxic T lymphocytes (CTLs) in tumors", "setting": "WAP-TGFα tumors [4]; NanoString bioinformatics, compared to PTD4, six tumors each", "result": "increase"},
      {"measurement": "NK cells in tumor samples", "setting": "WAP-TGFα tumors [4]; NanoString, compared to PTD4 control", "result": "increase"},
      {"measurement": "IL1RL1 expression", "setting": "IL1RL1", "result": "upregulated"},
      {"measurement": "binding of EGFR to SNX1", "setting": "[5]", "result": "competitively inhibits"}
    ]}
  ]
}
